Laboratory results from patent publication US12173007B2, “Imidazopyridazine IL-17 inhibitor compounds” (Janssen Pharmaceutica NV, priority 2021, dated 2024).

What was measured:
[1] = biological target: IL-17A(FLAG-Tagged): IL-17RA(His-Tagged) binding (Homo sapiens, UniProt Q16552, K93Q); test: IL-17A(FLAG-tagged):IL-17RA(His-tagged) binding disruption Eu-HTRF assay, Protocol 2; conditions: FLAG-IL-17A 1 nM; average if tested more than once
Description: IL-17A(FLAG-Tagged): IL-17RA(His-Tagged) Binding Disruption Eu-HTRF Assay
An antibody directed against the FLAG tag of IL-17A (SEQ ID NO: 1) is labeled with the HTRF donor chromophore (Europium-cryptate). IL-17A is present as a dimer that is “locked into” this quaternary structure due to the formation of loop-spanning […] disulfide bridges. The construct of IL-17RA used in the assay excludes the […] portion of the receptor and is fused to a C-terminal 10×His tag (SEQ ID NO:2). An antibody directed against the His tag of the IL-17RA chimera is labeled with the HTRF acceptor chromophore (“D2”). The fluorescence-resonance energy transfer (FRET) depends on the vicinity of the donor chromophore to the acceptor, and interruption of the binding between the IL-17A and IL-17RA causes the reduction/loss of FRET. Therefore, this assay allows to evaluate the compound effect on the binding IL-17A and IL-17RA by monitoring the fluorescence intensity of donor vs acceptor. The assay was run using either Protocol 1 or Protocol 2 as described below.
Protocol 2. 40 nl of 2-fold serial diluted compound solution for total 22 dilution points is added into each well of a 1536-well, white, low-volume, non-binding plate (Greiner #782904), then 2 μl of FLAG tagged IL-17A at 2×final concentration (1 nM) in solution of PBS+0.01% Triton-X100 is added to each well. The assay plate is briefly centrifuged then incubated for 1 h at rt. A mixed solution is prepared containing 2×5 nM 10HIS×IL-17RA, 2×2.5 nM Eu-anti-FLAG (CISBIO), 2×5 nM D2-anti-HIS (CISBIO) in PBS+0.01% Triton-X100+200 mM Potassium Fluoride (Sigma 60238) and 2 μl of mix is added to each well of the assay plate. The plate is briefly centrifuged then incubated for 2 h at rt. The HTRF intensities at the wavelength of donor (615 nm) and acceptor (665 nm) are measured using BMG Pherastar. The ratio between intensities at two wavelengths is calculated and plotted against the compound concentration and the data is fitted to a one-site competition model to yield IC50 of the compound.

[2] = tested on: IL-17A-induced G-CSF production in human normal keratinocyte (NHK); test: NHK assay: IL-17A-induced G-CSF production in normal human keratinocytes; format: cell-based; conditions: 24 h, IL-17A 5 ng/mL, G-CSF by HTRF, average if tested more than once
Experimental: IL-17A acts directly on keratinocytes through binding to dimeric receptor IL-17RA/RC and drives the production of a number of inflammatory mediators known to be elevated in psoriasis lesional tissue. IL-17A small molecule inhibitors that block the IL-17A to interact with IL-17R would inhibit the IL-17A signaling in its targeted cells such as keratinocytes. The compound functional activity is evaluated for its impact on IL-17A-induced G-CSF production in human normal keratinocyte (NHK).
Adult normal human keratinocytes are cultured in keratinocyte growth medium (Lonza) in a flask till reaching ˜90% confluence, then cells are transferred to a 384-well plate at density of 3000-4000 cell/well. Recombinant human IL-17A (Gibco PHC9174) is pre-incubated with titrated compound or DMSO for 1 h at rt then added to the cell culture plate. The final concentration of IL-17A is 5 ng/mL and DMSO is 0.2%, in the culture containing 5% FBS. Cells are cultured/treated for 24 h at 37° C. Supernatants are collected and G-CSF production is measured through HTRF technology using Human G-CSF Kit (CisBio). G-CSF concentration was extrapolated from the standard curve and IC50 is determined using GraphPad Prism. Cell viability is also evaluated using CellTiter-Glo kit (Promega) and effect of compound on cell viability is compared to DMSO control.

UniProt Q16552, sequence (Q16552 with tags, fused parts or gaps K93Q): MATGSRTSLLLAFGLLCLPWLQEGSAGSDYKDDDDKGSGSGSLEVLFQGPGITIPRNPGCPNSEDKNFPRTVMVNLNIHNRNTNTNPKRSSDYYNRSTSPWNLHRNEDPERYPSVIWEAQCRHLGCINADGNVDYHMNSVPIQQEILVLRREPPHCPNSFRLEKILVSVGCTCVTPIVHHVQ

Row | Structure (SMILES) | IC50 [1] [nM] | IC50 ([2]; Homo sapiens, Keratinocyte) [nM] | IC50 [2] [nM]
1 | COc1nonc1C(=O)N[C@@H](CCC(C)(C)C(F)(F)F)c1cn2ncc(CN3C[C@H]4[C@@H](CNC3=O)C4(F)F)cc2n1 (relative stereo) [Example 117, N—((S)-1-(7-(((1R*,7S*)-8,8-Difluoro-4-oxo-3,5-diazabicyclo[5.1.0]octan-3-yl)methyl)imidazo[1,2-b]pyridazin-2-yl)-5,5,5-trifluoro-4,4-dimethylpentyl)-4-methoxy-1,2,5-oxadiazole-3-carboxamide] | < 50 | < 50 | –
2 | CC(C)(CC[C@H](NC(=O)c1nonc1C1CC1)c1cn2ncc(CN3C[C@@H]4[C@H](CNC3=O)C4(F)F)cc2n1)C(F)(F)F (relative stereo) [Example 118, 4-Cyclopropyl-N—((S)-1-(7-(((1S*,7R*)-8,8-difluoro-4-oxo-3,5-diazabicyclo[5.1.0]octan-3-yl)methyl)imidazo[1,2-b]pyridazin-2-yl)-5,5,5-trifluoro-4,4-dimethylpentyl)-1,2,5-oxadiazole-3-carboxamide] | < 50 | > 100 | –
3 | Cc1nonc1C(=O)N[C@@H](CCC(C)(C)C(F)(F)F)c1cn2ncc(CN3C[C@@H]4[C@H](CNC3=O)C4(F)F)cc2n1 (relative stereo) [Example 120, N—((S)-1-(7-(((1S*,7R*)-8,8-Difluoro-4-oxo-3,5-diazabicyclo[5.1.0]octan-3-yl)methyl)imidazo[1,2-b]pyridazin-2-yl)-5,5,5-trifluoro-4,4-dimethylpentyl)-4-methyl-1,2,5-oxadiazole-3-carboxamide] | > 100 | > 100 | –
4 | Cc1nonc1C(=O)N[C@@H](CCC(C)(C)C(F)(F)F)c1cn2ncc(CN3C[C@H]4[C@@H](CNC3=O)C4(F)F)cc2n1 (relative stereo) [Example 121, N—((S)-1-(7-(((1R*,7S*)-8,8-Difluoro-4-oxo-3,5-diazabicyclo[5.1.0]octan-3-yl)methyl)imidazo[1,2-b]pyridazin-2-yl)-5,5,5-trifluoro-4,4-dimethylpentyl)-4-methyl-1,2,5-oxadiazole-3-carboxamide] | < 50 | < 50 | –
5 | COC[C@H](c1cnn2cc(C(CCC(C)(C)C(F)(F)F)NC(=O)c3nonc3C)nc2c1)N1CC(F)(F)CNC1=O (single isomer, unassigned) [Example 45, N—((S*)-1-(7-((S)-1-(5,5-Difluoro-2-oxotetrahydropyrimidin-1(2H)-yl)-2-methoxyethyl)imidazo [1,2-b]pyridazin-2-yl)-5,5,5-trifluoro-4,4-dimethylpentyl)-4-methyl-1,2,5-oxadiazole-3-carboxamide] | < 50 | < 50 | –
6 | Cc1nonc1C(=O)N[C@H](c1cn2ncc(C(C3CCOCC3)N3CC(F)(F)CNC3=O)cc2n1)C1CCC(F)(F)CC1 (single isomer, unassigned) [Example 59, N—((S)-(7-((R*)-(5,5-Difluoro-2-oxotetrahydropyrimidin-1(2H)-yl)(tetrahydro-2H-pyran-4-yl)methyl)imidazo[1,2-b]pyridazin-2-yl)(4,4-difluorocyclohexyl)methyl)-4-methyl-1,2,5-oxadiazole-3-carboxamide] | < 50 | < 50 | –
7 | COC[C@H](c1cnn2cc(C(CC(C)(C)C(C)(F)F)NC(=O)c3nonc3C3CC3)nc2c1)N1CC(F)(F)CNC1=O (single isomer, unassigned) [Example 68, 4-Cyclopropyl-N—((S*)-1-(7-((S)-1-(5,5-difluoro-2-oxotetrahydropyrimidin-1(2H)-yl)-2-methoxyethyl)imidazo[1,2-b]pyridazin-2-yl)-4,4-difluoro-3,3-dimethylpentyl)-1,2,5-oxadiazole-3-carboxamide] | < 50 | < 50 | –
8 | COC[C@H](c1cnn2cc(C(CCC3(C(F)(F)F)CC3)NC(=O)c3nonc3C)nc2c1)N1CC(F)(F)CNC1=O (single isomer, unassigned) [Example 125, N—((R*)-1-(7-((S)-1-(5,5-Difluoro-2-oxotetrahydropyrimidin-1(2H)-yl)-2-methoxyethyl)imidazo[1,2-b]pyridazin-2-yl)-3-(1-(trifluoromethyl)cyclopropyl)propyl)-4-methyl-1,2,5-oxadiazole-3-carboxamide] | > 100 | > 100 | –
9 | COC[C@H](c1cnn2cc([C@@H](NC(=O)c3nonc3C3CC3(F)F)C3CCC(F)(F)CC3)nc2c1)N1CC(F)(F)CNC1=O (single isomer, unassigned) [Example 129, N—((S)-(7-((S)-1-(5,5-Difluoro-2-oxotetrahydropyrimidin-1(2H)-yl)-2-methoxyethyl)imidazo[1,2-b]pyridazin-2-yl)(4,4-difluorocyclohexyl)methyl)-4-((S*)-2,2-difluorocyclopropyl)-1,2,5-oxadiazole-3-carboxamide] | < 50 | – | < 50

Continued, in another order:

Row | IC50 [1] [nM] | Structure (SMILES) | IC50 ([2]; Homo sapiens, Keratinocyte) [nM] | IC50 [2] [nM]
10 | < 50 | CC(C)(CC[C@H](NC(=O)c1nonc1C1CC1)c1cn2ncc(CN3C[C@H]4[C@@H](CNC3=O)C4(F)F)cc2n1)C(F)(F)F (relative stereo) [Example 119, 4-Cyclopropyl-N—((S)-1-(7-(((1R*,7S*)-8,8-difluoro-4-oxo-3,5-diazabicyclo[5.1.0]octan-3-yl)methyl)imidazo[1,2-b]pyridazin-2-yl)-5,5,5-trifluoro-4,4-dimethylpentyl)-1,2,5-oxadiazole-3-carboxamide] | < 50 | –
11 | < 50 | COC[C@H](c1cnn2cc([C@H](CCC(C)(C)C(C)(F)F)NC(=O)c3nonc3C)nc2c1)N1CC(F)(F)CNC1=O (relative stereo) [Example 133, N—((S*)-1-(7-((S)-1-(5,5-Difluoro-2-oxotetrahydropyrimidin-1(2H)-yl)-2-methoxyethyl)imidazo[1,2-b]pyridazin-2-yl)-5,5-difluoro-4,4-dimethylhexyl)-4-methyl-1,2,5-oxadiazole-3-carboxamide] | < 50 | –
12 | < 50 | [2H]C1([2H])NC(=O)N([C@H](COC2CC2)c2cnn3cc([C@@H](NC(=O)c4nonc4C)C4CCC(F)(F)CC4)nc3c2)C([2H])([2H])C1(F)F (single isomer, unassigned) [Example 40] | < 50 | –
13 | < 50 | COC[C@H](c1cnn2cc(C(CCC3(C(F)(F)F)CC3)NC(=O)c3nonc3C)nc2c1)N1CC(F)(F)CNC1=O (single isomer, unassigned) [Example 126, N—((S*)-1-(7-((S)-1-(5,5-Difluoro-2-oxotetrahydropyrimidin-1(2H)-yl)-2-methoxyethyl)imidazo[1,2-b]pyridazin-2-yl)-3-(1-(trifluoromethyl)cyclopropyl)propyl)-4-methyl-1,2,5-oxadiazole-3-carboxamide] | – | < 50
14 | < 50 | COC[C@H](c1cnn2cc([C@@H](NC(=O)c3nonc3C3CC3(F)F)C3CCC(F)(F)CC3)nc2c1)N1CC(F)(F)CNC1=O (single isomer, unassigned) [Example 128, N—((S)-(7-((S)-1-(5,5-Difluoro-2-oxotetrahydropyrimidin-1(2H)-yl)-2-methoxyethyl)imidazo[1,2-b]pyridazin-2-yl)(4,4-difluorocyclohexyl)methyl)-4-((R*)-2,2-difluorocyclopropyl)-1,2,5-oxadiazole-3-carboxamide] | < 50 | –
